Test results reported in paper PMC2962730 (Journal of neurochemistry, 2010).
Substitutions are numbered along the chain they refer to.

Assays:
[1] = target: T1, hVAChT Y60W (Homo sapiens, UniProt Q16572, Y60W); assay: [3H]vesamicol saturation binding; settings: pH 7.4
T1 sequence (Q16572 1-532 Y60W): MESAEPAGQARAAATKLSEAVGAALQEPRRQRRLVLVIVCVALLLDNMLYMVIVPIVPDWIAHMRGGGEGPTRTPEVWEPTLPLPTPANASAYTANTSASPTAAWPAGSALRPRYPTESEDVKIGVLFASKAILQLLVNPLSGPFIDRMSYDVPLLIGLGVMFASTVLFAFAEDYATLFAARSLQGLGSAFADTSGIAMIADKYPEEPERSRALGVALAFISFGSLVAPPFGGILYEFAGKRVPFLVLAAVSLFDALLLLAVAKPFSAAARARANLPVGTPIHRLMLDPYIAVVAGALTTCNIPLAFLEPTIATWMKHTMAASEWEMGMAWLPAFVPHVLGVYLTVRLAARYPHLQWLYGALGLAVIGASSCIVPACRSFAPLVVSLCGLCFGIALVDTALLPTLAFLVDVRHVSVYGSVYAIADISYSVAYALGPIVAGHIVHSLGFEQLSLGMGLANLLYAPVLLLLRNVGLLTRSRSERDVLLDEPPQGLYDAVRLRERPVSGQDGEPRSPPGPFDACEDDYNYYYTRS

[2] = target: T2, hVAChT Y60H (Homo sapiens, UniProt Q16572, Y60H); assay: [3H]vesamicol saturation binding; settings: pH 7.4
T2 sequence (Q16572 1-532 Y60H): T1 sequence (Q16572 1-532 Y60W) with W60H

[3] = target: T3, hVAChT M316A (Homo sapiens, UniProt Q16572, M316A); assay: ACh equilibrium binding by competition against [3H]vesamicol
T3 sequence (Q16572 1-532 M316A): T1 sequence (Q16572 1-532 Y60W) with W60Y, M316A

[4] = target: T4, hVAChT W331A (Homo sapiens, UniProt Q16572, W331A); assay: [3H]ACh transport; type: biochemical
T4 sequence (Q16572 1-532 W331A): T1 sequence (Q16572 1-532 Y60W) with W60Y, W331A

[5] = target: T5, hVAChT W331L (Homo sapiens, UniProt Q16572, W331L); assay: ACh equilibrium binding by competition against [3H]vesamicol
T5 sequence (Q16572 1-532 W331L): T1 sequence (Q16572 1-532 Y60W) with W60Y, W331L

[6] = target: T2, hVAChT Y60H; assay: as above

| Compound | Bmax, maximal specific [3H]vesamicol binding (VAChT expression level) [1] [pmol/mg] | Bmax, maximal specific [3H]vesamicol binding (VAChT expression level) [2] [pmol/mg] | Kd [3] [mM] | FHA, fraction of the ACh sites that have high affinity ([3]; M316A hVAChT, pH 7.4) | [3H]ACh transport [4] | ACh bound more weakly than by wild-type ([5]; W331L hVAChT vs wild-type) [fold] | FHA, fraction of the ACh sites that have high affinity ([5]; W331L hVAChT, pH 7.4, monophasic fit, FHA fixed to 1) | Kd [6] [mM] | FHA, fraction of the ACh sites that have high affinity ([6]; Y60H hVAChT, pH 7.4) |
| --- | --- | --- | --- | --- | --- | --- | --- | --- | --- |
| O[C@@H]1CCCC[C@H]1N1CCC(c2ccccc2)CC1 (racemic) [vesamicol, ( )-trans-2-(4-phenylpiperidino)cyclohexanol] | 34 ± 3 | 15 ± 1 |  |  |  |  |  |  |  |
| CC(=O)OCC[N+](C)(C)C [ACh, acetylcholine] |  |  | 8.3 ± 0.7 | 0.74 ± 0.03 | no transport | 10 | 1.0 | 11 | 0.82 ± 0.04 |
